# Columns and labels:
# splenocytes [1] = test: Proliferation of splenocytes from mice immunized with p15 conjugates, stimulated in vitro with p15; assay type: in vivo; conditions: spleens 10 days after immunization; p15 25 μg/ml, 3 days
# Method: (§1) Mice were immunized with the following peptides as described in Example 8 using the following peptides: p15 (SEQ ID NO:11), p32 (SEQ ID NO:13), Ec27-p15 ([…], SEQ ID NO:77), and Mock-p15 ([…], SEQ ID NO:80—the p431 peptide fused to p15).
# (§2) Spleens were harvested 10 days after the immunization and splenocytes were cultured with p15 (25 μg/ml) for 3 days. Cell proliferation and IFNγ levels in the supernatants of spleen cell cultures were measured. Results are the average of 3 independent proliferation experiments. Ec27-Ep15* and Ec27-Ep15** are two identical but independent groups in the same experiment.
# IFN-γ = IFN-γ secretion of splenocytes from mice immunized with p15 conjugates, stimulated in vitro with p15; assay type: in vivo; conditions: spleens 10 days after immunization; p15 25 μg/ml, 3 days
# Method: as §1, §2
# BALB/c lymph node cells = test: Proliferative response of lymph node cells to overlapping GroEL peptides after immunization with E. coli bacteria or GroEL; assay type: cell-based, BALB/c mice; conditions: mice immunized with E. coli bacteria or GroEL; peptides 20 μg/ml
# lymph node cells = test: Proliferative response of lymph node cells after immunization with the Ec27 peptide; assay type: in vivo, mice
# IVIG-IL (anti-WNV Abs) = test: ELISA recognition of peptides by IVIG-IL; assay type: binding, human; conditions: peptide 1 μg/well; IVIG-IL 1:40 dilution
# Method: (§3) ELISA tests were performed according to the method described by Martin et al (Martin et al, 2000) with slight modifications. Briefly, microtiter plates were coated and incubated overnight at 4° C. with 100 μl of the different peptides (1 μg/well) or WNV antigen diluted 1:700 in coating buffer (NaHCO3, pH=9.6). After incubation, the coating buffer was decanted and the plates were washed twice in PBS containing 0.05% Tween 20 and 0.2% sodium azide (washing buffer). After blocking for 1 h with a 200 μl/wen of PBS containing 0.05% Tween 20 and 2.5% nonfat dry milk, the plates were washed 4 times in washing buffer and 100 μl of IVIG-IL or mouse sera at 1:40 dilution were added to each well (2-4 wells per sample). Negative and positive controls of human or mouse sera were tested in each plate. […] The color intensity was measured by ELISA-reader (Dynatec MR 5000) at the absorbance of 405 nm.
# (§4) Next, it was examined whether the candidate epitope is recognized by a serum immunoglobulin pool taken from Israeli donors (IVIG-IL), which contains anti-WNV Abs. […] After blocking and washing, IVIG-IL was added at 1:40 dilution and binding was detected. […]
# [2] = test system: serum from WNV-infected mice; test: ELISA recognition of peptides by serum from WNV-infected mice; assay type: binding; conditions: peptide 1 μg/well; sera 1:40 dilution
# Method: as §3, §4
# WNV [3] = test: Protective efficacy of immunization against WNV challenge (mortality); assay type: in vivo, BALB/c mice; conditions: for Mortality (% deaths) / Mortality (dead of total): 3 immunizations, 10^6 pfu WNV, 21 days post challenge, 5 experiments; for Protective efficacy against WNV challenge: summary of 5 experiments
# [4] = test system: sera from WNV-exposed human subjects; test: ELISA recognition of WNV peptides by human sera; assay type: binding
# Method: Sera from WNV-exposed and non-exposed human subjects was assayed for antibodies recognizing the novel WNV peptide antigens, p15 (SEQ ID NO:11) and p17 (SEQ ID NO:21). FIG. 17 presents the results of an ELISA test in which the p15 and p17 served as the antigen, human sera were used as the primary antibody and HRP-conjugated anti-human Abs were used as the secondary antibody. RLU are the relative luminescence units produced by HRP activity on the luminal substrate.
# Sera S2 and S6 are from human that were not infected with WNV while sera S1, S3-S5 and S7 are from human that had history of WNV infection.
# [5] = test system: splenocytes from WNV-infected mice; test: Proliferation of splenocytes from WNV-infected mice after in vitro stimulation with peptides; assay type: cell-based; conditions: in vitro stimulation with peptide
# WNV [6] = test: Virus levels in brain after p32 immunization and WNV challenge (RT-PCR and plaque assay); assay type: in vivo, mice; conditions: day 7 after challenge with 10^6 pfu WNV; immunized 3 times
# WNV-Ag [7] = test: ELISA of anti-WNV Abs in sera of immunized mice; assay type: in vivo; conditions: 7 days after 3rd immunization; sera 1:40
# Method: FIG. 11. Anti-WNV Abs in the sera of mice immunized with different peptides or with WNV Ag. (A) Mice were immunized 3 times with the different peptides or WNV-Ag at 7 day intervals. Seven days after the 3rd immunization mice were bled and sera were tested as follows. Wells were coated with WNV-Ag (1:700 dilution). After blocking and washing, the different sera were added at 1:40 dilution and binding was detected as described in methods (ELISA). Results are the average of 4 independent ELISA experiments. Bars, ±SD. (B) Isotypes of Anti-WNV antibodies.
# as §3, with “sample).” for “sample). Negative and positive controls of human or mouse sera were tested in each plate.”, “nm. […]” for “nm.”
# WNV-Ag [8] = test: Isotypes of anti-WNV antibodies (ELISA); assay type: in vivo, mice
# Method: Plates were coated with the WNV-Ag diluted 1:700 in coating buffer. After overnight incubation at 4° C., blocking and washing, various dilutions of mouse sera were added in triplicates. Negative and positive controls of mouse sera were tested in each plate. Total IgG assessment was performed using HRP-Streptavidin-conjugated anti-mouse IgG (SouthernBiotech). For antibody isotype identification, incubation with biotin-conjugated anti-mouse IgG1, IgG2a, IgG2b, IgG3, IgA and IgM antibodies (PharMingen, San Diego, Calif.) was followed by incubation with 1:1000 diluted HRP-Streptavidin (Jackson Laboratories, West Grove, Pa.). After substrate addition the color intensity was measured by ELISA-reader at 405 nm.
# Next, it was examined whether p32 immunization and sublethal infection with WNV induce similar isotypes of anti-WNV antibodies. WNV-Ag was used as the antigen in the ELISA plates.
# splenocytes [9] = test: Proliferation of splenocytes from p32-immunized mice after in vitro stimulation; assay type: in vivo; conditions: in vitro stimulation with WNV antigen
# IFNγ = IFNγ secretion of splenocytes from p32-vaccinated mice; assay type: in vivo; conditions: in vitro stimulation with WNV antigen
# [10] = sera of p32-immunized versus WNV-infected mice
sequence,measurement,setting,value
KKARVEDALHATRAAVEEGV [Ec27],Proliferation of spleen cells in the presence of p15,splenocytes [1],did not induce significant proliferation
same,IFN-γ secretion of spleen cells in the presence of p15,IFN-γ,did not induce significant proliferation and IFN-γ secretion
same,Proliferative response of draining LNC to GroEL peptide,BALB/c lymph node cells,highly immunogenic
same,Proliferative response of lymph node cells of Ec27-immunized BALB/c mice,"lymph node cells; 20 μg Ec27 in IFA s.c., 10 days later","responded the Ec27 peptide and to the whole GroEL molecule, but not to the control peptide AcR 259-271"
same,Proliferative response of mouse strains with different MHC haplotypes,"lymph node cells; BALB/c, BALB/k, BALB/b, SJL",all four different mouse strains responded specifically
LVTVNPFVSVATANS [p15],Recognition by IVIG-IL,IVIG-IL (anti-WNV Abs),recognized by IVIG-IL
same,Recognition by serum from WNV-infected mice,[2],specifically recognized
same,Mortality (% deaths),WNV [3],(53%)
same,Mortality (dead of total),WNV [3],8/15
same,Protective efficacy against WNV challenge,WNV [3],slight protective efficacy
same,Recognition by sera of WNV-exposed and unexposed human subjects,"[4]; ELISA, peptide as antigen",specifically recognized by WNV-exposed sera and not by sera from unexposed subjects
same,Recognition by sera from Dengue-infected humans,[4]; data not shown,did not recognize
NEDQKIGIEIIKRALKILVTVNPFVSVATANS [p32],Proliferation of T cells from WNV-infected mice,[5],proliferated in response to in vitro stimulation
same,Mortality (% deaths),WNV [3],(10%)
same,Mortality (dead of total),WNV [3],2/21
same,Protective efficacy against WNV challenge,WNV [3],a high degree of protection
same,Virus levels in the brain,WNV [6],no virus was detected
same,WNV-specific Abs in sera,WNV-Ag [7],high titer of WNV-specific Abs as compared to immunization with p15 alone
same,WNV-specific IgA and IgG3,WNV-Ag [8]; sera of p32-immunized and WNV-infected mice,Neither IgA nor IgG3 specific for WNV were detected
same,Anti-WNV IgG1 and IgG2a levels,WNV-Ag [8]; [10],similarly high
same,WNV-specific IgG2b levels,WNV-Ag [8]; [10],higher in sera from WNV-infected mice
same,WNV-specific IgM levels,WNV-Ag [8]; [10],higher in p32-immunized mice
same,Proliferation of splenocytes from immunized mice,splenocytes [9],proliferated in response to in vitro stimulation with WNV antigen
same,IFNγ secretion of splenocytes from immunized mice,IFNγ,secretion of high levels of IFNγ
